Measured values as given in patent US9937154B2, “Use of telmisartan to prevent and treat graft versus host disease and other alloimmune and autoimmune diseases” (Hackensack University Medical Center, priority 2015, dated 2018).
Entries after “also recorded” stand apart in the source; their conditions may differ. Where a name gives a salt, the structure may show the parent alone. Read-outs that look alike come from different tables or passages of the source.

Experiments:
C3B6 mice (GVHD model) [1] = assay: GVHD-associated skin inflammation in C3B6 mice; assay type: in vivo, mouse; conditions: ATBM+T cells+Fasudil recipient mice
Protocol: Skin is most commonly affected and usually the first organ involved in GVHD. Ferrara J L M, et al., Lancet. 373(9674): 1550-1561 (2009). In this study, C3B6 mice were used to determine the effect of ROCK inhibitors on GVHD-associated skin inflammation.
C3B6 mice were treated according to Example 1. […] . Skin inflammation in C3B6 treated mice occurred in the fourth week and gradually waned over a two week-period.

C3B6 mice (GVHD model) [2] = assay: GVHD survival in irradiated C3B6 F1 mice given ATBM and donor T cells; conditions: ATBM + T cells + Fasudil i.p. and p.o., n = 26
[3] = system: responding splenocytes from C3B6 hosts; assay: mouse IFN-γ ELISPOT after one-way mixed lymphocyte reaction of host splenocytes; assay type: cell-based
Protocol: Classically, a MLR is carried out by co-incubating lymphocytes from two strains that differ in histocompatibility genes for several days, and the proliferative response of T cells of one lymphocyte population to histocompatibility antigens of the other then measured.
Secretion of IFN-γ by responder cells in a MLR was used as an indicator of cytotoxic T lymphocyte function (i.e., alloreactivity). Briefly, spleens from C3B6 mice treated according to Example 1 were harvested at day 10 (C3H donor T cells migrating to the spleen with few de novo generated T cells emigrating from the host thymus) or at day 84 (spleens containing newly generated T cells maturing within the host thymus; i.e., allotolerant of host B6 parental antigens) post-transplant for use as responders. Spleens from C3H, C3B6 and DBA mice (Jackson Laboratory) were harvested for use as stimulators. Spleens were homogenized and the cells were washed twice with Phosphate Buffered Saline (PBS) (Sigma Aldrich, St. Louis, Mo., Catalog No. P5493, or equivalent). Red blood cells were separated from lymphocytes using Ficoll®. Briefly, cells were transferred to 50 mL conical tubes containing 15 mL of Ficoll®-Paque PLUS (GE Healthcare, Waukesha, Wis., Catalog No. 17-1440-03) and centrifuged at 800 rcf (1,900-2,000 rpm) for 20 minutes with centrifuge break off. After centrifugation, the buffy coat layer (containing lymphocytes) was removed and transferred to a new 50 mL conical tube. Phosphate-buffered saline (PBS) without calcium and magnesium (Gibco, Life Technologies, Carlsbad, Calif., Catalog No. 10010-023 or equivalent) was added to the buffy coat layer so that the total volume in the conical tube is equal to 50 mL. The buffy coat layer in PBS was centrifuged at 250 rcf (1,200 rpm) for 10 minutes with centrifuge brake applied. After centrifugation, the PBS was aspirated and the lymphocyte pellet was resuspended in 48 mL of PBS. Lymphocytes resuspended in PBS were centrifuged at 250 rcf (1,200 rpm) for 10 minutes with centrifuge break applied. PBS was aspirated and PBMC pellet resuspended in 12.5% Bovine Serum Albumin (BSA) (Sigma-Aldrich, St. Louis, Mo., Catalog No. A9418-5G or equivalent) in RPMI medium (Sigma-Aldrich, St. Louis, Mo., Catalog No. R7388 or equivalent). Stimulator lymphocytes (from C3H, C3B6 and DBA mouse spleens) were irradiated for 2.5 minutes (2,000 RAD) in a cesium irradiator.
One-way MLRs were performed by mixing 1×10^5 lymphocytes from both stimulator and responder cells in a 96-well ELISPOT (eBioscience, San Diego, Calif., Catalog No. 88-7384, or equivalent) capture plate coated with anti-mouse IFN-γ antibody according to manufacturer's protocol. […]

[4] = system: animal models of subarachnoid hemorrhage (SAH); conditions: cited from earlier work
[5] = system: CFSE labeled splenic lymphocytes from C3B6 hosts; assay: CFSE labeling with flow-based assessment of splenic lymphocyte division in one-way MLR; assay type: cell-based, mouse; conditions: day 98 survivor mice
Protocol: Carboxyfluorescein […] succinimidyl ester (CFSE) labeling (Molecular Probes, Carlsbad, Calif., Catalog No. C34554, or equivalent) with flow cytometry detection was employed to assess lymphocyte cell division in response to alloantigen recognition. Briefly, lymphocytes from responders and stimulators were harvested as described above. For this experiment, sources of stimulator cells included C3H, C3B6 and Balb/c mice. Next, lymphocytes from responders were incubated in CFSE prepared according to manufacturer's protocol at 37° C. for 10 minutes. The staining was quenched by the addition of 5 volumes of ice-cold culture media (12.5% Bovine Serum Albumin (BSA) in RPMI) to the lymphocytes. Lymphocytes were incubated on ice for 5 minutes before pelleting by centrifugation. After centrifugation, the lymphocytes were washed by resuspending and pelleting 3 times in fresh culture media. One-way MLRs were performed by mixing 1×10^5 lymphocytes from both stimulator and CFSE responder cells in a 96-well tissue culture plate (Corning Costar, Tewksbury, Mass., Catalog No. CLS3585 or equivalent). […] After 5 days of incubation, the cells were harvested and analyzed using a flow cytometer with 488 nm excitation and emission filters appropriate for fluorescein. […]

small intestinal crypts = assay: small intestine tissue sections of 90 day survivor mice; assay type: in vivo, mouse; conditions: FIG. 7
Excerpt: (B) Limited inflammation within dashed lines of basal layer and lamina propria, with intact crypts, in 90 day survivor Fasudil® treated mice.

C3B6 mice (GVHD model) [6] = assay: GVHD-associated weight loss and diarrhea in C3B6 mice; assay type: in vivo, mouse
Protocol: It is well known that weight loss occurs in patients with GVHD. Jacobsohn D A, et al., Bone Marrow […]. 29(3): 231-236 (2002). […] C3B6 mice were treated according to Example 1. […] Despite the similar initial weight losses of Fasudil® treated and untreated T cell recipients, the two groups had different rates of diarrhea. […] Diarrhea resolved by the fourth week among survivors in both groups.

SAH patients = conditions: over 1400 SAH patients; cited from earlier work
[7] = system: rat models of inflammatory and noninflammatory arthritic pain; conditions: cited from earlier work
human ROCK I = human ROCK I (Homo sapiens, UniProt Q13464); conditions: cited from earlier work
ROCK II [8] = target: T1, ROCK II (Homo sapiens, UniProt O75116); conditions: cited from earlier work
preconstricted rat aorta = conditions: cited from earlier work
[9] = system: rat model of hypertension; conditions: cited from earlier work
ROCK II [10] = target: T1, ROCK II; conditions: cited from earlier work; remark: listed apart in the source
ROCK = conditions: cited from earlier work
neutrophil migration = conditions: cited from earlier work
[11] = in vivo; cited from earlier work
[12] = system: transplant patients (IT GVHD); conditions: cited from earlier work

T1 sequence (O75116 whole entry): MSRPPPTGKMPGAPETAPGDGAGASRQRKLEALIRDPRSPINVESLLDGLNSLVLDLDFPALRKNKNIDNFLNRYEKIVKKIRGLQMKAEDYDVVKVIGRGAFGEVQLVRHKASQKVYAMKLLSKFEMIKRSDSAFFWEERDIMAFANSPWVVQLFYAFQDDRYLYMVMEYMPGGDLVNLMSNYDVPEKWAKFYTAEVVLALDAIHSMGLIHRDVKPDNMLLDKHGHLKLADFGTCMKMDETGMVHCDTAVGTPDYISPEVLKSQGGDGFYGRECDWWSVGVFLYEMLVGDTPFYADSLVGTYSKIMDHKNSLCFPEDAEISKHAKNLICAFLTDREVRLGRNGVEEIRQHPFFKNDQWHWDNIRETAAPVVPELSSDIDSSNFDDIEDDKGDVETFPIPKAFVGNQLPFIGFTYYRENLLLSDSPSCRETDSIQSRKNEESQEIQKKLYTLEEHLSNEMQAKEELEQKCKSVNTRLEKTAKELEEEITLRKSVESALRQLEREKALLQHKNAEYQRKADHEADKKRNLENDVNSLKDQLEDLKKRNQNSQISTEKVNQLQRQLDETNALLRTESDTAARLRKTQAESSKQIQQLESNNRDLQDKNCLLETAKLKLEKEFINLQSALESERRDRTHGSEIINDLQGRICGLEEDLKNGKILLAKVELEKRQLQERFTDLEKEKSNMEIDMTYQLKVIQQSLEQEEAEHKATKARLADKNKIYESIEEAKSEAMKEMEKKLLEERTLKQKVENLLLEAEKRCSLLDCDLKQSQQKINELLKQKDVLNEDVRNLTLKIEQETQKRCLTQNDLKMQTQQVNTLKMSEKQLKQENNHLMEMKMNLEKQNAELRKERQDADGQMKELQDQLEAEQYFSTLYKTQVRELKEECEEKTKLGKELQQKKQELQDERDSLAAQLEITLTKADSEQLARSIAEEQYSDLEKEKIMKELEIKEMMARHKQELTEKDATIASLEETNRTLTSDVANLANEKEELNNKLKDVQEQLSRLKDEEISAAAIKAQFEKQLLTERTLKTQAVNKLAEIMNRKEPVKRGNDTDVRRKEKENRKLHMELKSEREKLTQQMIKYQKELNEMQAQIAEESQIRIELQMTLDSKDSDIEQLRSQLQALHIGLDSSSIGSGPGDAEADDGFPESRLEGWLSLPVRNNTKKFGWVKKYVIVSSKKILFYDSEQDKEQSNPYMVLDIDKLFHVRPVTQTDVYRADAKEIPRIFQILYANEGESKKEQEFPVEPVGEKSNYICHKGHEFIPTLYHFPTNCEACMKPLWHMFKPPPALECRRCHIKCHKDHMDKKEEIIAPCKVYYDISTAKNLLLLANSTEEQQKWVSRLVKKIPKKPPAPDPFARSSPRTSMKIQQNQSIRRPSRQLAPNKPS
Chain of human ROCK I (Q13464 whole entry): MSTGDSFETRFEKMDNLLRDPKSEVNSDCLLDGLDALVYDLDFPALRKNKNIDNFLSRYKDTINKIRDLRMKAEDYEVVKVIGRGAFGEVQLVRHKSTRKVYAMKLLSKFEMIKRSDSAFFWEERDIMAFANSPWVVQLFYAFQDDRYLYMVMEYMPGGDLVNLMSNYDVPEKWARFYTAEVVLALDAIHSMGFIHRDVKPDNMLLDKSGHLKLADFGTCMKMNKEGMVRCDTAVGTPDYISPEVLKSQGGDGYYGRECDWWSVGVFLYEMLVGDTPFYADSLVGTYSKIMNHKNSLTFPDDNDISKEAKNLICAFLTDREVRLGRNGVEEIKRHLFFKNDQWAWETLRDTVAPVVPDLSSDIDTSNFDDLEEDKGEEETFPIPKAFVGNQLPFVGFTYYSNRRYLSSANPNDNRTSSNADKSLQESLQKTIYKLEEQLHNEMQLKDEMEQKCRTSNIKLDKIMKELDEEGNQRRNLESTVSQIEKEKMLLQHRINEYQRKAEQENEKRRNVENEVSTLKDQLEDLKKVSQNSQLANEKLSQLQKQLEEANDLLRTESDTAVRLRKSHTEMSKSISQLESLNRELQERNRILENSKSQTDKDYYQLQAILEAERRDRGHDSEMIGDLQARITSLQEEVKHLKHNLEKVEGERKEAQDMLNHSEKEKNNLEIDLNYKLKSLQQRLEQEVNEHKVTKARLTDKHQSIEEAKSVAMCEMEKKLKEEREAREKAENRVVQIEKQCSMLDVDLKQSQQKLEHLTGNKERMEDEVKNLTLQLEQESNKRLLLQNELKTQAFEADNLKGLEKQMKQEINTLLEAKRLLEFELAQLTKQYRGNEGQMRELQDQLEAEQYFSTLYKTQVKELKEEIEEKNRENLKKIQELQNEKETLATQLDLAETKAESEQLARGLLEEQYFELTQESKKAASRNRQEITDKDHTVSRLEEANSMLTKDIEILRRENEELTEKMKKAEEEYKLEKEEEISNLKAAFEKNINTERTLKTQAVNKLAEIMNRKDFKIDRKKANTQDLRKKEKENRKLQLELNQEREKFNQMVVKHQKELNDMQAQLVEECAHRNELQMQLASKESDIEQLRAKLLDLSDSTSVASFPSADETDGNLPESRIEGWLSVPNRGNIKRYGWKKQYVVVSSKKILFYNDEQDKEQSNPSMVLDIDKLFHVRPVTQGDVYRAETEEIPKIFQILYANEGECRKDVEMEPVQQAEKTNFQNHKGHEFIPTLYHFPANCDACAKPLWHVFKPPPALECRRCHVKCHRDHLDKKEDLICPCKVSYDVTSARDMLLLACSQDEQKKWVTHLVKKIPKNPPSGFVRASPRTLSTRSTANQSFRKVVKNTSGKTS

Q: With O=S(=O)(c1cccc2cnccc12)N1CCCNCC1 [Fasudil®, Fasudil] as the compound, how does the skin inflammation (C3B6 mice (GVHD model) [1]) read?
A: Its skin inflammation is “did not prevent skin inflammation”.

Q: And the “Survival Rate (95% CI), 90 day” value (C3B6 mice (GVHD model) [2])?
A: The value was 73%.

Q: And the “Survival Rate (95% CI), 90 day” value (C3B6 mice (GVHD model) [2]; listed as Fasudil ®)?
A: Its value is 73% (55%-88%).

Q: What about the “Day 10 IFN-γ secreting spleen cell frequencies” value ([3]; Concanavalin A positive control) of the same compound?
A: Its value is 120.0 per 100,000 cells.

Q: And the “Day 10 IFN-γ secreting spleen cell frequencies” value ([3]; irradiated stimulators C3B6F1 (host), 4 day one-way MLR)?
A: The value was 115.6 per 100,000 cells.

Q: What about the “Day 10 IFN-γ secreting spleen cell frequencies” value ([3]; irradiated stimulators C3H (self), 4 day one-way MLR) of the same compound?
A: Its value is 2.3 per 100,000 cells.

Q: And the “Day 10 IFN-γ secreting spleen cell frequencies” value ([3]; irradiated stimulators DBA (third party), 4 day one-way MLR)?
A: Its value is 18 per 100,000 cells.

Q: What about the “blood vessel spasm and constriction after subarachnoid bleeding” value [4] of the same compound?
A: The value was “effective in reversing blood vessel spasm and constriction”.

Q: What about the “spleen cell division in response to B6C3F1 stimulation” value ([5]; FIG. 6-E) of the same compound?
A: The value was “strongly responded to B6C3F1 stimulation”.

Q: And the “spleen cell division in response to Balb/c stimulation” value ([5]; FIG. 6-F)?
A: Its value is “comparable to their response to Balb/c”.

Q: And the “small intestinal crypt inflammation” value (small intestinal crypts)?
A: Its value is “minimal small intestinal crypt inflammation”.

Q: What about the “mice developing clinically observable diarrhea” value (C3B6 mice (GVHD model) [6]; between second and third weeks post-transplant) of the same compound?
A: The value was “less than 20%”.

Q: And the weight loss (C3B6 mice (GVHD model) [6]; first three weeks post-transplant, roughly the same as ATBM+T cells mice)?
A: The weight loss was roughly 25 % total body weight.

Q: And the subsequent weight recovery (C3B6 mice (GVHD model) [6]; most experiments, data not shown)?
A: The subsequent weight recovery was “recovered more weight than ATBM+T cells recipient mice”.

Q: And the tolerability and safety (SAH patients)?
A: Its tolerability and safety is “well tolerated and safe”.

Q: Which results are given for O=C(Nc1ccc(-c2ccncc2)cc1)N[C@H](CO)c1ccccc1 [AS 1892802]?
A: analgesic effects [7]: exhibits analgesic effects; IC50 (human ROCK I): 0.122 µM; IC50 (ROCK II [8]): 0.052 µM

Q: Which vasorelaxation (preconstricted rat aorta) does the source give for CCn1c(-c2nonc2N)nc2cnc(Oc3cccc(NC(=O)c4ccc(OCCN5CCOCC5)cc4)c3)cc21 [GSK 269962] here?
A: The vasorelaxation was “induce vasorelaxation”.

Q: What about the blood pressure [9] of the same compound?
A: Its blood pressure is “lower blood pressure”.

Q: For Cc1cncc2cccc(S(=O)(=O)N3CCCN(C(=O)CN)C[C@@H]3C)c12 [Glycyl-H-1152 dihydrochloride], which IC50 (ROCK II [10]) is on record?
A: The IC50 was 0.0118 µM.

Q: Which results are given for c1ccc2c(-c3ccncc3)c[nH]c2c1 [Rockout®]?
A: IC50 (ROCK; ATP-competitive, reversible): 25 µM; effect on the activation of ROCK (ROCK): does not inhibit the activation of ROCK

Q: What does the source list for Cl.O=c1[nH]ccc2c(S(=O)(=O)N3CCCNCC3)cccc12 [HA 1100 hydrochloride]?
A: neutrophil migration (neutrophil migration): inhibit neutrophil migration; vasodilatory effects [11]: potent vasodilatory effects

Q: For maraviroc, which “IT GVHD and acute (within 100 days) death” value [12] is on record?
A: The value was “prevented IT GVHD and acute (within 100 days) death; also recorded: no acute deaths”.
